Reference: the supplement of paper PMC8671470

Legend:
Conditions in all cases: 72 h
HL-60 [1] = test: area under dose-response curve (viability, 1 nM-10 uM) (fraction (0-1)); higher = more sensitive
Outline: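 HL-60 cells in RPMI 1640 with 10% FBS were rescreened against the full library on 384-well plates at five tenfold concentrations, 1–10,000 nM, in duplicate. Each screen was run with DMSO or 100 nM of one of three metabolic inhibitors, for 72 h at 37 °C, 5% CO2. Viability was read by CellTiter-Glo and normalised to DMSO and 10 μM proteasome-inhibitor wells. Where given, area under the curve came from four-parameter log-logistic fits (drc, PharmacoGx).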

HL-60 [2] = system: HL-60
Outline: (§1)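 Dose–response data were fitted with a four-parameter log-logistic model. They came from fifteen myeloid leukaemia lines treated in duplicate with five tenfold doses from 1 to 10,000 nM for 72 h at 37 °C with 5% CO2, with ATP viability normalised to vehicle and to a positive control at 10 µM. The IC50 was derived from these fits.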

BV-173 = system: BV-173
Outline: as §1

ML-2 = system: ML-2
Outline: as §1

MOLM-13 = system: MOLM-13
Outline: as §1

KG-1 = system: KG-1
Outline: as §1

LAMA-84 = system: LAMA-84
Outline: as §1

KCL-22 = system: KCL-22
Outline: as §1

THP-1 = system: THP-1
Outline: as §1

SHI-1 = system: SHI-1
Outline: as §1

HEL = system: HEL
Outline: as §1

[3] = co-treatment: GSK2194069 100 nM
[4] = co-treatment: pictilisib 100 nM

C=CC(=O)c1ccc(O)cc1 [4-Acryloylphenol]
< 0.0301: area under dose-response curve (HL-60 [1]; co-treatment: AZD3965 100 nM) | area under dose-response curve (HL-60 [1]; co-treatment: DMSO vehicle) | area under dose-response curve (HL-60 [1]; [3]) | area under dose-response curve (HL-60 [1]; [4])
6.68 µM: IC50 (cell viability) (KCL-22)
9.62 µM: IC50 (cell viability) (ML-2)
3.1 µM: IC50 (cell viability) (BV-173)
6.6 µM: IC50 (cell viability) (HEL)
> 10 µM: IC50 (cell viability) (HL-60 [2]) | IC50 (cell viability) (MOLM-13) | IC50 (cell viability) (KG-1) | IC50 (cell viability) (LAMA-84) | IC50 (cell viability) (THP-1) | IC50 (cell viability) (SHI-1)

CCCCCN(C)CCC(O)(P(=O)(O)O)P(=O)(O)O [Ibandronate]
> 10 µM: IC50 (cell viability) (HL-60 [2]) | IC50 (cell viability) (BV-173) | IC50 (cell viability) (ML-2) | IC50 (cell viability) (MOLM-13) | IC50 (cell viability) (KG-1) | IC50 (cell viability) (LAMA-84) | IC50 (cell viability) (KCL-22) | IC50 (cell viability) (THP-1) | IC50 (cell viability) (SHI-1) | IC50 (cell viability) (HEL)
< 0.0301: area under dose-response curve (HL-60 [1]; co-treatment: AZD3965 100 nM) | area under dose-response curve (HL-60 [1]; co-treatment: DMSO vehicle) | area under dose-response curve (HL-60 [1]; [3]) | area under dose-response curve (HL-60 [1]; [4])

CCCc1nc(C)c2c(=O)nc(-c3cc(S(=O)(=O)N4CCN(CC)CC4)ccc3OCC)[nH]n12 [Vardenafil]
> 10 µM: IC50 (cell viability) (HL-60 [2]) | IC50 (cell viability) (BV-173) | IC50 (cell viability) (ML-2) | IC50 (cell viability) (MOLM-13) | IC50 (cell viability) (KG-1) | IC50 (cell viability) (LAMA-84) | IC50 (cell viability) (KCL-22) | IC50 (cell viability) (THP-1) | IC50 (cell viability) (SHI-1) | IC50 (cell viability) (HEL)

OC[C@H]1O[C@@H](n2cnc3c2N=CNC[C@H]3O)C[C@@H]1O [Pentostatin]
< 0.0301: area under dose-response curve (HL-60 [1]; co-treatment: AZD3965 100 nM) | area under dose-response curve (HL-60 [1]; co-treatment: DMSO vehicle) | area under dose-response curve (HL-60 [1]; [3]) | area under dose-response curve (HL-60 [1]; [4])
> 10 µM: IC50 (cell viability) (HL-60 [2]) | IC50 (cell viability) (BV-173) | IC50 (cell viability) (ML-2) | IC50 (cell viability) (MOLM-13) | IC50 (cell viability) (KG-1) | IC50 (cell viability) (LAMA-84) | IC50 (cell viability) (KCL-22) | IC50 (cell viability) (THP-1) | IC50 (cell viability) (SHI-1) | IC50 (cell viability) (HEL)

COc1ccc2c(NC(=O)Nc3cccc(C(F)(F)F)n3)ccnc2c1
> 10 µM: IC50 (cell viability) (HL-60 [2]) | IC50 (cell viability) (BV-173) | IC50 (cell viability) (ML-2) | IC50 (cell viability) (KG-1) | IC50 (cell viability) (LAMA-84) | IC50 (cell viability) (KCL-22) | IC50 (cell viability) (THP-1) | IC50 (cell viability) (SHI-1) | IC50 (cell viability) (HEL)
< 0.0301: area under dose-response curve (HL-60 [1]; co-treatment: AZD3965 100 nM) | area under dose-response curve (HL-60 [1]; co-treatment: DMSO vehicle) | area under dose-response curve (HL-60 [1]; [3]) | area under dose-response curve (HL-60 [1]; [4])
9.04 µM: IC50 (cell viability) (MOLM-13)

CCCCCOC(=O)Nc1nc(=O)n([C@@H]2O[C@H](C)[C@@H](O)[C@H]2O)cc1F [Capecitabine]
< 0.0301: area under dose-response curve (HL-60 [1]; co-treatment: AZD3965 100 nM) | area under dose-response curve (HL-60 [1]; co-treatment: DMSO vehicle) | area under dose-response curve (HL-60 [1]; [3]) | area under dose-response curve (HL-60 [1]; [4])
> 10 µM: IC50 (cell viability) (HL-60 [2]) | IC50 (cell viability) (BV-173) | IC50 (cell viability) (ML-2) | IC50 (cell viability) (MOLM-13) | IC50 (cell viability) (KG-1) | IC50 (cell viability) (LAMA-84) | IC50 (cell viability) (KCL-22) | IC50 (cell viability) (THP-1) | IC50 (cell viability) (SHI-1) | IC50 (cell viability) (HEL)

O=c1c(-c2ccc(O)cc2)coc2cc(O[C@@H]3O[C@H](CO)[C@@H](O)[C@H](O)[C@H]3O)ccc12 [Daidzin]
> 10 µM: IC50 (cell viability) (HL-60 [2]) | IC50 (cell viability) (BV-173) | IC50 (cell viability) (ML-2) | IC50 (cell viability) (MOLM-13) | IC50 (cell viability) (KG-1) | IC50 (cell viability) (LAMA-84) | IC50 (cell viability) (KCL-22) | IC50 (cell viability) (THP-1) | IC50 (cell viability) (SHI-1) | IC50 (cell viability) (HEL)
< 0.0301: area under dose-response curve (HL-60 [1]; co-treatment: AZD3965 100 nM) | area under dose-response curve (HL-60 [1]; co-treatment: DMSO vehicle) | area under dose-response curve (HL-60 [1]; [3]) | area under dose-response curve (HL-60 [1]; [4])

Cc1c(Cl)cccc1S(=O)(=O)Nc1nc(CC(=O)N2CCN(C)CC2)cs1 [BVT-2733]
> 10 µM: IC50 (cell viability) (HL-60 [2]) | IC50 (cell viability) (BV-173) | IC50 (cell viability) (ML-2) | IC50 (cell viability) (MOLM-13) | IC50 (cell viability) (KG-1) | IC50 (cell viability) (LAMA-84) | IC50 (cell viability) (KCL-22) | IC50 (cell viability) (THP-1) | IC50 (cell viability) (SHI-1) | IC50 (cell viability) (HEL)
< 0.0301: area under dose-response curve (HL-60 [1]; co-treatment: AZD3965 100 nM) | area under dose-response curve (HL-60 [1]; co-treatment: DMSO vehicle) | area under dose-response curve (HL-60 [1]; [3]) | area under dose-response curve (HL-60 [1]; [4])

Cc1cccc(Nc2cc(Cl)nc(SCC(=O)O)n2)c1C [Pirinixic acid]
> 10 µM: IC50 (cell viability) (HL-60 [2]) | IC50 (cell viability) (BV-173) | IC50 (cell viability) (ML-2) | IC50 (cell viability) (MOLM-13) | IC50 (cell viability) (KG-1) | IC50 (cell viability) (LAMA-84) | IC50 (cell viability) (KCL-22) | IC50 (cell viability) (THP-1) | IC50 (cell viability) (SHI-1) | IC50 (cell viability) (HEL)
< 0.0301: area under dose-response curve (HL-60 [1]; co-treatment: AZD3965 100 nM) | area under dose-response curve (HL-60 [1]; co-treatment: DMSO vehicle) | area under dose-response curve (HL-60 [1]; [3]) | area under dose-response curve (HL-60 [1]; [4])

Cc1cc(C(=O)NNCc2ccccc2)no1 [Isocarboxazid]
< 0.0301: area under dose-response curve (HL-60 [1]; co-treatment: AZD3965 100 nM) | area under dose-response curve (HL-60 [1]; co-treatment: DMSO vehicle) | area under dose-response curve (HL-60 [1]; [3]) | area under dose-response curve (HL-60 [1]; [4])
> 10 µM: IC50 (cell viability) (HL-60 [2]) | IC50 (cell viability) (BV-173) | IC50 (cell viability) (ML-2) | IC50 (cell viability) (MOLM-13) | IC50 (cell viability) (KG-1) | IC50 (cell viability) (LAMA-84) | IC50 (cell viability) (KCL-22) | IC50 (cell viability) (THP-1) | IC50 (cell viability) (SHI-1) | IC50 (cell viability) (HEL)

CC[C@H](C)[C@H](N)C(=O)N1CCSC1 [P32/98]
> 10 µM: IC50 (cell viability) (HL-60 [2]) | IC50 (cell viability) (BV-173) | IC50 (cell viability) (ML-2) | IC50 (cell viability) (MOLM-13) | IC50 (cell viability) (KG-1) | IC50 (cell viability) (LAMA-84) | IC50 (cell viability) (KCL-22) | IC50 (cell viability) (THP-1) | IC50 (cell viability) (SHI-1) | IC50 (cell viability) (HEL)
< 0.0301: area under dose-response curve (HL-60 [1]; co-treatment: AZD3965 100 nM) | area under dose-response curve (HL-60 [1]; co-treatment: DMSO vehicle) | area under dose-response curve (HL-60 [1]; [3]) | area under dose-response curve (HL-60 [1]; [4])

CCCCCCCC/C=C\CCCCCCCC(=O)Nc1ccccc1 [Octadec-9-Enoic Acid Phenylamide]
> 10 µM: IC50 (cell viability) (HL-60 [2]) | IC50 (cell viability) (BV-173) | IC50 (cell viability) (ML-2) | IC50 (cell viability) (MOLM-13) | IC50 (cell viability) (KG-1) | IC50 (cell viability) (LAMA-84) | IC50 (cell viability) (KCL-22) | IC50 (cell viability) (THP-1) | IC50 (cell viability) (SHI-1) | IC50 (cell viability) (HEL)
< 0.0301: area under dose-response curve (HL-60 [1]; co-treatment: AZD3965 100 nM) | area under dose-response curve (HL-60 [1]; co-treatment: DMSO vehicle) | area under dose-response curve (HL-60 [1]; [3]) | area under dose-response curve (HL-60 [1]; [4])
